Test results from PubChem BioAssay AID1963853 (Molecular Pharmacology Branch, DTP, NCI, 2024).

Test system: 266295-075-R-J1-PDC spheroid viability
Assay: Anticancer human tumor 266295-075-R-J1-PDC patient-derived head and neck squamous carcinoma cell line growth inhibition [POLQ]
Details: spheroids with HUVEC and MSC; for IC50: curve of first compound; for viability, T/C: stronger effect = lower value
Procedure, shortened: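 PDC + HUVEC + MSC complex spheroids; POLQ inhibitors ± partner drugs; top conc. at/near clinical Cmax, else 10 microM (SN-38 1 microM), half-log dilutions; 37 degrees C, 5% CO2.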

[1] = second compound 0.0316 µM, first compound 0.0316 µM
[2] = second compound 0.0316 µM, first compound 0.1 µM
[3] = second compound 0.0316 µM, first compound 0.316 µM
[4] = second compound 0.0316 µM, first compound 1 µM
[5] = second compound 0.0316 µM, first compound 3.16 µM
[6] = second compound 0.0316 µM, first compound 10 µM
[7] = second compound 0.1 µM, first compound 0.0316 µM
[8] = second compound 0.1 µM, first compound 0.1 µM
[9] = second compound 0.1 µM, first compound 0.316 µM
[10] = second compound 0.1 µM, first compound 1 µM
[11] = second compound 0.1 µM, first compound 3.16 µM
[12] = second compound 0.1 µM, first compound 10 µM
[13] = second compound 0.316 µM, first compound 0.0316 µM
[14] = second compound 0.316 µM, first compound 0.1 µM
[15] = second compound 0.316 µM, first compound 0.316 µM
[16] = second compound 0.316 µM, first compound 1 µM
[17] = second compound 0.316 µM, first compound 3.16 µM
[18] = second compound 0.316 µM, first compound 10 µM
[19] = second compound 1 µM, first compound 0.0316 µM
[20] = second compound 1 µM, first compound 0.1 µM
[21] = second compound 1 µM, first compound 0.316 µM
[22] = second compound 1 µM, first compound 1 µM
[23] = second compound 1 µM, first compound 3.16 µM
[24] = second compound 1 µM, first compound 10 µM
[25] = second compound 3.16 µM, first compound 0.0316 µM
[26] = second compound 3.16 µM, first compound 0.1 µM
[27] = second compound 3.16 µM, first compound 0.316 µM
[28] = second compound 3.16 µM, first compound 1 µM
[29] = second compound 3.16 µM, first compound 3.16 µM
[30] = second compound 3.16 µM, first compound 10 µM
[31] = second compound 10 µM, first compound 0.0316 µM
[32] = second compound 10 µM, first compound 0.1 µM
[33] = second compound 10 µM, first compound 0.316 µM
[34] = second compound 10 µM, first compound 1 µM
[35] = second compound 10 µM, first compound 3.16 µM
[36] = second compound 10 µM, first compound 10 µM
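Also: spheroids exposed to compounds for seven days before readout.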

## CC1COCCN1c1cc(-c2ccnn2C)c2ccnc(-c3ccn[nH]3)c2n1 (stereo unspecified) + COC1C(OC(N)=O)C(O)C(Oc2ccc3c(O)c(NC(=O)c4ccc(O)c(CC=C(C)C)c4)c(=O)oc3c2C)OC1(C)C
Second compound 0.0316 µM
  IC50: 4350 nM
Second compound 0.1 µM
  IC50: 2010 nM
Second compound 0.316 µM
  IC50: 1910 nM
Second compound 1 µM
  IC50: 3890 nM
Second compound 3.16 µM
  IC50: 4510 nM
Second compound 10 µM
  IC50: 1970 nM
[1]
  viability, T/C: 91.2%
[2]
  viability, T/C: 84.7%
[3]
  viability, T/C: 71.2%
[4]
  viability, T/C: 63.3%
[5]
  viability, T/C: 54.3%
[6]
  viability, T/C: 42.1%
[7]
  viability, T/C: 91.7%
[8]
  viability, T/C: 92.2%
[9]
  viability, T/C: 65.8%
[10]
  viability, T/C: 58%
[11]
  viability, T/C: 48.4%
[12]
  viability, T/C: 41.6%
[13]
  viability, T/C: 89.9%
[14]
  viability, T/C: 90.6%
[15]
  viability, T/C: 63.7%
[16]
  viability, T/C: 61.3%
[17]
  viability, T/C: 43.6%
[18]
  viability, T/C: 38.7%
[19]
  viability, T/C: 110%
[20]
  viability, T/C: 91.2%
[21]
  viability, T/C: 79.1%
[22]
  viability, T/C: 62.5%
[23]
  viability, T/C: 53.3%
[24]
  viability, T/C: 41%
[25]
  viability, T/C: 98.2%
[26]
  viability, T/C: 82.8%
[27]
  viability, T/C: 77.2%
[28]
  viability, T/C: 63.9%
[29]
  viability, T/C: 53.9%
[30]
  viability, T/C: 41.9%
[31]
  viability, T/C: 87.6%
[32]
  viability, T/C: 94.7%
[33]
  viability, T/C: 75.7%
[34]
  viability, T/C: 57.1%
[35]
  viability, T/C: 47.8%
[36]
  viability, T/C: 38.1%

## CC1COCCN1c1cc(C2(S(C)(=N)=O)CC2)nc(-c2ccnc3[nH]ccc23)n1 (stereo unspecified) + COC1C(OC(N)=O)C(O)C(Oc2ccc3c(O)c(NC(=O)c4ccc(O)c(CC=C(C)C)c4)c(=O)oc3c2C)OC1(C)C
Second compound 0.0316 µM
  IC50: > 10000 nM
Second compound 0.1 µM
  IC50: > 10000 nM
Second compound 0.316 µM
  IC50: > 10000 nM
Second compound 1 µM
  IC50: > 10000 nM
Second compound 3.16 µM
  IC50: > 10000 nM
Second compound 10 µM
  IC50: > 10000 nM
[1]
  viability, T/C: 101%
[2]
  viability, T/C: 82.5%
[3]
  viability, T/C: 105%
[4]
  viability, T/C: 77.9%
[5]
  viability, T/C: 74.9%
[6]
  viability, T/C: 56.8%
[7]
  viability, T/C: 82.6%
[8]
  viability, T/C: 87.9%
[9]
  viability, T/C: 89.6%
[10]
  viability, T/C: 87.9%
[11]
  viability, T/C: 82.7%
[12]
  viability, T/C: 63.5%
[13]
  viability, T/C: 89.2%
[14]
  viability, T/C: 86.8%
[15]
  viability, T/C: 101%
[16]
  viability, T/C: 81.1%
[17]
  viability, T/C: 94.7%
[18]
  viability, T/C: 52.2%
[19]
  viability, T/C: 95.4%
[20]
  viability, T/C: 105%
[21]
  viability, T/C: 95.2%
[22]
  viability, T/C: 92.7%
[23]
  viability, T/C: 78.2%
[24]
  viability, T/C: 62.2%
[25]
  viability, T/C: 105%
[26]
  viability, T/C: 93.6%
[27]
  viability, T/C: 91.9%
[28]
  viability, T/C: 81.9%
[29]
  viability, T/C: 79.1%
[30]
  viability, T/C: 63.1%
[31]
  viability, T/C: 92.4%
[32]
  viability, T/C: 105%
[33]
  viability, T/C: 88.9%
[34]
  viability, T/C: 72.5%
[35]
  viability, T/C: 68.8%
[36]
  viability, T/C: 56.1%

## Cn1ncnc1[C@H]1c2n[nH]c(=O)c3cc(F)cc(c23)N[C@@H]1c1ccc(F)cc1 + COC1C(OC(N)=O)C(O)C(Oc2ccc3c(O)c(NC(=O)c4ccc(O)c(CC=C(C)C)c4)c(=O)oc3c2C)OC1(C)C
Second compound 0.0316 µM
  IC50: > 100 nM
Second compound 0.1 µM
  IC50: > 100 nM
Second compound 0.316 µM
  IC50: > 100 nM
Second compound 1 µM
  IC50: > 100 nM
Second compound 3.16 µM
  IC50: > 100 nM
Second compound 10 µM
  IC50: > 100 nM
Second compound 0.0316 µM, first compound 0.000316 µM
  viability, T/C: 85%
Second compound 0.0316 µM, first compound 0.001 µM
  viability, T/C: 97.4%
Second compound 0.0316 µM, first compound 0.00316 µM
  viability, T/C: 93%
Second compound 0.0316 µM, first compound 0.01 µM
  viability, T/C: 99.9%
[1]
  viability, T/C: 85.9%
[2]
  viability, T/C: 97.1%
Second compound 0.1 µM, first compound 0.000316 µM
  viability, T/C: 97.9%
Second compound 0.1 µM, first compound 0.001 µM
  viability, T/C: 92.7%
Second compound 0.1 µM, first compound 0.00316 µM
  viability, T/C: 70.2%
Second compound 0.1 µM, first compound 0.01 µM
  viability, T/C: 98.5%
[7]
  viability, T/C: 93.4%
[8]
  viability, T/C: 79.9%
Second compound 0.316 µM, first compound 0.000316 µM
  viability, T/C: 106%
Second compound 0.316 µM, first compound 0.001 µM
  viability, T/C: 87.5%
Second compound 0.316 µM, first compound 0.00316 µM
  viability, T/C: 97.6%
Second compound 0.316 µM, first compound 0.01 µM
  viability, T/C: 103%
[13]
  viability, T/C: 86%
[14]
  viability, T/C: 83.2%
Second compound 1 µM, first compound 0.000316 µM
  viability, T/C: 97.2%
Second compound 1 µM, first compound 0.001 µM
  viability, T/C: 86.3%
Second compound 1 µM, first compound 0.00316 µM
  viability, T/C: 88.6%
Second compound 1 µM, first compound 0.01 µM
  viability, T/C: 83.7%
[19]
  viability, T/C: 93.4%
[20]
  viability, T/C: 78.9%
Second compound 3.16 µM, first compound 0.000316 µM
  viability, T/C: 86%
Second compound 3.16 µM, first compound 0.001 µM
  viability, T/C: 106%
Second compound 3.16 µM, first compound 0.00316 µM
  viability, T/C: 87.2%
Second compound 3.16 µM, first compound 0.01 µM
  viability, T/C: 84.5%
[25]
  viability, T/C: 94.3%
[26]
  viability, T/C: 80.5%
Second compound 10 µM, first compound 0.000316 µM
  viability, T/C: 101%
Second compound 10 µM, first compound 0.001 µM
  viability, T/C: 80.8%
Second compound 10 µM, first compound 0.00316 µM
  viability, T/C: 86.9%
Second compound 10 µM, first compound 0.01 µM
  viability, T/C: 104%
[31]
  viability, T/C: 88.7%
[32]
  viability, T/C: 83.2%
